# Data: patent US8084453B2, “Alkyl substituted indoloquinoxalines” (Oxypharma AB, priority 2004, dated 2011)
# How the values were obtained:
# [1] = test system: mAB/LPS-induced arthritic mice; experiment: mAb/LPS-induced arthritis in mice, hind paw thickness; assay type: in vivo; conditions: for Mean group values of hind paw thickness, day 0: day 0 (base-line); for Mean group values of hind paw thickness, day 0 / Mean group values of hind paw thickness, day 7 / Mean group values of hind paw thickness, day 9 / Mean group values of hind paw thickness, day 11: once daily (day 0-5) repeated subcutaneous administration; for Hind paw thickness vs vehicle control (corn oil): comparison with vehicle control (corn oil)
# Excerpt: Collagen-induced arthritis (CIA) in mice is widely used as an experimental model for rheumatoid arthritis (RA) in humans. CIA is mediated by autoantibodies which bind to a particular region of type II collagen, such as CB11 (CNBr-digested fragment of type II collagen).
# Antibody-mediated CIA can be induced by iv injection of a combination of 4 different monoclonal antibodies (Arthrogen-CIA® mAb) generated by Arthrogen-CIA® mouse B-hybridoma cell lines.
# Three of the mAbs recognize autoantigenic epitopes clustered within an 84 amino acid residue fragment, LyC2 (the smallest arthritogenic fragment of type II collagen) of CB11 and the fourth mAb reacts with LyC1 (FIG. 1). Importantly, all 4 mAbs recognize the conserved epitopes shared by various species of type II collagen and crossreact with homologous and heterologous type II collagen.
# A cocktail of 4 monoclonal antibodies are used. These arthritogenic mAbs alone or in combination with bacterial LPS can induce severe arthritis within days instead of weeks (classic CIA model).
# (A) A cocktail of 4 monoclonal antibodies to type II collagen (2 mg) is injected intravenously on day 0 followed by an intraperitoneal injection of LPS (50 μg) on day 3. Arthritis will develop on day 4 and reach its peak on day 7-8. The therapeutic effects of test compounds will be determined on day 7. […] formation and bone degradation will be more significant on day 14 and day 21 (not shown). (B) Authentic collagen-induced arthritis.
# Measurement of arthritis. Hind paw thickness, left and right of each animal (9 animals in each group) was measured in mm on study days 0 (base-line), 7, 9 and 11 using a Mitutoyo Electronic Digital Caliper. […] Dexamethasone is a cortisone which suppresses inflammation and normal immune response, and is used systemically and locally to treat inflammatory disorders. Patients are for safety reasons treated with short courses of cortisones to bring the inflammation under control in the window between starting the DMARD or DMARD combination and the likely response time.
# FIG. 3. Mean group values (mm) of hind paw thickness measured throughout the entire 11-day observation period in the mAB/LPS-induced arthritic mice following once daily (day 0-5) repeated subcutaneous administration of B-220 analogues, Dexamethasone (positive control) or corn oil (negative control).
# EAE model = conditions: prior art patents; cited from earlier work
# [2] = test system: collagen-induced arthritis (CIA) model; conditions: prior art patents; cited from earlier work
melting point [°C],SMILES,"Mean group values of hind paw thickness, day 0 [1] [mm]","Mean group values of hind paw thickness, day 7 [1] [mm]","Mean group values of hind paw thickness, day 9 [1] [mm]","Mean group values of hind paw thickness, day 11 [1] [mm]",Hind paw thickness vs vehicle control (corn oil) [1],treating MS in the EAE model (EAE model),treating RA in the collagen-induced arthritis (CIA) model [2]
316 to 319,"Cc1cc2nc3c4cc(F)ccc4n(CC(N)=O)c3nc2cc1C [Compound C, 2,3-Dimethyl-9-fluoro-indolo[2,3-b]quinoxaline-6-yl-acetamide]",2.2,3.1,3.0,2.8,,,
,"Cc1cc2nc3c4cc(Cl)ccc4n(CC(=O)NCCN(C)C)c3nc2cc1C [Compound E, 9-Chloro-2,3-dimethyl-6-(N,N-dimethylaminoethylamino-2-oxoethyl)-6H-indolo-[2,3-b]quinoxaline]",2.2,2.3,2.3,2.3,highly significant lower,,
317 to 318,"Cc1cc2nc3c4cc(F)ccc4n(CC(=O)O)c3nc2cc1C [Compound L, 2,3-dimethyl-9-fluoro-indolo[2,3-b]quinoxaline-6-yl-acetic acid]",,,,,,,
269 to 271,"Cc1cc2nc3c4cc(F)ccc4n(CC(=O)NCCN)c3nc2cc1C [Compound H, 2,3-Dimethyl-6-(aminoethylamino-2-oxoethyl)-9-fluoro-6H-indolo[2,3-b]quinoxaline]",2.2,2.5,2.5,2.5,highly significant lower,,
,"Cc1cc2nc3c4ccccc4n(CCN(C)C)c3nc2cc1C [Compound B-220, 2,3-dimethyl-6-(N,N-dimethylaminoethyl)-6H-indolo(2,3-b)quinoxaline, reference compound]",2.2,3.1,3.0,2.8,,promising compound,promising compound
,"C[C@@H]1C[C@H]2[C@@H]3CCC4=CC(=O)C=C[C@]4(C)[C@@]3(F)[C@@H](O)C[C@]2(C)[C@@]1(O)C(=O)CO [Dexamethasone, reference compound]",2.2,2.3,2.3,2.3,,,
331 to 332,"Cc1cc2nc3c4cc(Cl)ccc4n(CC(=O)O)c3nc2cc1C [Compound K, 2,3-Dimethyl-9-chloro-indolo[2,3-b]quinoxaline-6-yl acetic acid]",,,,,,,
